According to patent publication US7666644B2, “Glyphosate-N-acetyltransferase (GAT) genes” (Verdia, Inc., priority 2004, dated 2010):

Tests used:
[1] = test system: soybeans expressing GAT and HRA transgenes; test: T1 post-emergence sulfonamide spray of soybeans expressing GAT and HRA transgenes; assay type: in vivo, soybean; conditions: GAT (SEQ ID NO: 824)/SAMS promoter-HRA events
Description: T1 seed generated from experiments as described in Example 17 were germinated in RediEarth^R 360 medium in the greenhouse. Plants were sprayed at the V2-V3 stage (14 days after potting) with thifensulfuron, chlorimuron, rimsulfuron or tribenuron (70, 70, 35, 35 gm a.i./hectare, respectively). Plants were evaluated 10 days post application based on plant discoloration scores described in Example 17.
Events having a plant discoloration rating 7 or 8 after thifensulfuron spray were sprayed with either a 2× or 4× application of glyphosate after 10 days as per methods described in Example 17. Events were evaluated based on discoloration scores described in Example 17. All thifensulfuron tolerant events survived the glyphosate spray with score of 7 or 8 (results not shown).

[2] = test system: soybeans expressing GAT and HRA transgenes; test: T1 pre-emergence sulfonamide spray of soybeans expressing GAT and HRA transgenes; assay type: in vivo, soybean; design: key: 9=no leaf/stem discoloration; 7=minor leaf/stem discoloration; 5=worse leaf/stem discoloration; 3=severely discolored plant or dying plant; 1=dead plant; conditions: 70 gms a.i./hectare, 10 days post spray, all HRA and GAT events
Description: T1 seed generated from experiments as described in Example 17, were planted in pots of Tama Silt loam in the greenhouse. Pots were immediately sprayed with a pre-emergence application of chlorimuron, rimsulfuron or tribenuron at a rate of 70 gms a.i./hectare. Germinating plants were evaluated 10 days post spray application based on plant discoloration scores described in Example 17. All HRA and GAT events survived all pre-emergence spray applications with a rating of 9 (uninjured).

[3] = biological target: T1, Bacillus licheniformis strain B6 glyphosate-N-acetyltransferase (GAT), native, SEQ ID NO:7 (Bacillus paralicheniformis, UniProt A0AAW6KBE1); test: Apparent KM and kcat of purified GAT (Example 2); assay type: biochemical; conditions: read-out: KM for Acetyl CoA; apparent; 5 mM glyphosate, 5 mM morpholine pH 7.7, 50% methanol; MS detection
T1 construct: untagged
Description: Lysis of the cells was effected by the addition of 1 ml of the following buffer to 0.2 g of cells: 25 mM HEPES, pH 7.3, 100 mM KCl and 10% methanol (HKM) plus 0.1 mM EDTA, 1 mM DTT, 1 mg/ml chicken egg lysozyme, and a protease inhibitor cocktail obtained from Sigma and used according to the manufacturer's recommendations. After 20 minutes incubation at room temperature (e.g., 22-25° C.), lysis was completed with brief sonication. The lysate was centrifuged and the supernatant was desalted by passage through Sephadex G25 equilibrated with HKM. Partial purification was obtained by affinity chromatography on CoA Agarose (Sigma). The column was equilibrated with HKM and the clarified extract was allowed to pass through under hydrostatic pressure.
Purification to homogeneity was obtained by gel filtration of the partially purified protein through Superdex 75 (Pharmacia).
Initial reaction rates were determined using mass spectrometric detection of N-acetyl glyphosate. Five μl were repeatedly injected into the instrument and reaction rates were obtained by plotting reaction time vs area of the integrated peak (FIG. 6).

[4] = test system: native or low activity GAT enzymes (glyphosate-N-acetyltransferase); test: Kinetics typical of native or low activity GAT enzymes (Example 4); assay type: biochemical; conditions: read-out: KM for acetyl CoA
[5] = test system: maize plants; test: Effect of temperature variation on glyphosate tolerance of T1 maize expressing GAT transgenes; assay type: in vivo; conditions: cool/cold, warm and hot conditions, 0×, 4×, 6×, 8× glyphosate at V2, scored 5 and 14 days
Description: Maize plants expressing GAT variant transgenes 10—4F2 (SEQ ID NO:203), 17-15H3 (SEQ ID NO:549), and 18-28D9b (SEQ ID NO:814) were produced using the methods described in Example 13. The effect of temperature on glyphosate tolerance was evaluated in T1 plants. The T1 plants were grown in cool/cold (day 14° C., night 8° C.), warm (day 28° C., night 20° C.), and hot (day 37° C., night 20° C.) conditions. T1 plants were sprayed at V2 with four different glyphosate spray treatments (0×, 4×, 6×, and 8×). Plants were scored at 5 and 14 days after treatment for leaf discoloration and plant height comparisons as described in Example 13.

[6] = Transfer of the propionyl group from propionyl CoA to glyphosate, DTNB detection; assay type: biochemical; conditions: 1 mM propionyl CoA, 5 mM glyphosate or no glyphosate, 30 minutes
Description: The ability of GAT variants (B6 (SEQ ID NO:7), 0—6D10 (SEQ ID NO:448), 17-15H3 (SEQ ID NO:601), and 20-8H12c (SEQ ID NO:817)) to transfer the propionyl group from propionyl CoA to glyphosate was tested in reaction mixtures containing 5 mM glyphosate or no glyphosate. Propionyl CoA was present at 1 mM. After 30 minutes the reactions were terminated and the presence of free […] was determined by the addition of DTNB.

[7] = test system: tobacco plants; test: Herbicide spray tests of GAT expressing tobacco plants; assay type: in vivo, Nicotiana tabacum
Description: Tobacco shoots generated as described in EXAMPLE 9 were excised from the explants and transferred to basal root induction (BRI) medium composed of half-strength Murashige and Skoog (MS) medium, pH 5.7, with 1.5% sucrose, 0.3% Gelrite, 0-200 uM glyphosate and 400 ug/ml Timentin. Rooted plants and axillary shoots were clonally propagated by cutting the stem and transferring it to fresh BRI medium until the desired number of clones was obtained. Rooted plants were carefully removed from the solid medium. Prior to placing the plants into small pots of soil, the roots were washed to remove any remaining Gelrite. A protective plastic cover was kept over the plants for at least one week until the plants were well established.
To determine if GAT expressing tobacco plants could tolerate simulated field rate sprays of glyphosate, clonal lines of several events per GAT variant were tested. A typical test was set up as follows: One clone from each event was sprayed with 1 ml of solution containing the isopropylamine salt of glyphosate (Sigma P5671) and 0.125% Triton X-100, pH 6.8 such that the amount of active ingredient sprayed was equivalent to that present in commercial glyphosate products. For example, to achieve 32 oz/acre (1×) of herbicide containing 40% active ingredient (“ai”), 2.4 ul of 40% ai formulation was diluted into 1 ml water and sprayed on a plant in a 4-inch square pot (16 in^2). A mock application (0×) with surfactant only was also included. In some cases a second spray was applied 1-4 weeks later. Plants were kept in controlled growth rooms at 25° C. and 70% humidity with 16 hr light.
Seed-grown wild type plants were also sprayed. […] All 0× plants were healthy, including the non-GAT control plants. Three weeks later all of the surviving plants were sprayed with an 8× dose.

[8] = 35 gm a.i./ha post-emergence at V2-V3, 10 days after treatment
[9] = 70 gm a.i./ha post-emergence at V2-V3, 10 days after treatment

CCS(=O)(=O)c1cccnc1S(=O)(=O)NC(=O)Nc1nc(OC)cc(OC)n1 [Rimsulfuron]
Average Resistance scores [1, 8]: 2.21
plant discoloration rating [2]: 9

COc1cc(Cl)nc(NC(=O)NS(=O)(=O)c2ccccc2C(=O)O)n1 [Chlorimuron]
Average Resistance scores [1, 9]: 7.75
plant discoloration rating [2]: 9

COc1nc(C)nc(NC(=O)NS(=O)(=O)c2ccsc2C(=O)O)n1 [Thifensulfuron]
Average Resistance scores [1, 9]: 7.81

COc1nc(C)nc(N(C)C(=O)NS(=O)(=O)c2ccccc2C(=O)O)n1 [Tribenuron]
Average Resistance scores [1, 8]: 3.83
plant discoloration rating [2]: 9

CC(=O)SCCNC(=O)CCNC(=O)[C@H](O)C(C)(C)COP(=O)(O)OP(=O)(O)OC[C@H]1O[C@@H](n2cnc3c(N)ncnc32)[C@H](O)[C@@H]1OP(=O)(O)O [acetyl CoA]
Km [3]: 2 µM
Km [4]: < 25 µM

B1: 18-28D9b: GAT variant transgene, SEQ ID NO:814 (nucleic acid)
DNA: ATGATAGAGGTGAAACCGATTAACGCAGAGGATACCTATGAACTAAGGCATAGAATACTCAGACCAAACCAGCCGATAGAAGCGTGTATGTTTGAAAGCGATTTACTTCGTGGTGCATTTCACTTAGGCGGCTTTTACAGGGGCAAACTGATTTCCATAGCTTCATTCCACCAGGCCGAGCACTCGGAACTCCAAGGCCAGAAACAGTACCAGCTCCGAGGTATGGCTACCTTGGAAGGTTATCGTGAGCAGAAAGCGGGATCAACTCTAGTTAAACACGCTGAAGAAATCCTTCGTAAGAGGGGGGCGGACATGCTTTGGTGTAATGCGCGGACATCCGCCTCAGGCTACTACAAAAAGTTAGGCTTCAGCGAGCAGGGAGAGATATTTGACACGCCGCCAGTAGGACCTCACATCCTGATGTATAAAAGGATCACATAA
modifications: Synthetic nucleic acid sequence; CDS (1)...(441); 18-28D9b
effect of growth temperature on glyphosate tolerance [5]: not adversely effected

B2: 20-8H12c: GAT variant, SEQ ID NO:817 (protein)
chain: MIEVKPINAEDTYELRHRVLRPNQPIEACIFESDLMRGAFHLGGFYGGRLISVASFHQAEHSELQGQKQYQLRGMATLEGYREQKAGSSLVKHAEEILRKRGADLLWCNARTSASGYYKKLGFSEQGEVFDTPPVGPHILMYKRIT
modifications: 20-8H12c
glyphosate-dependent hydrolysis of propionyl CoA [6]: showed glyphosate-dependent hydrolysis of propionyl CoA

B3: 0—6D10: evolved GAT; gene SEQ ID NO:196, enzyme SEQ ID NO:448 (protein)
chain: MLEVKPINAEDTYELRHKILRPNQPLEVCMYETDLLRGAFHLGGFYRGKLISIASFHQAEHSDLQGQKQYQLRGMATLEGYRDQKAGSSLIRHAEQILRKRGADMLWCNARTSASGYYKKLGFSEQGEVFETPPVGPHILMYKRLT
modifications: 0_6D10
outcome two weeks after glyphosate spray ([7]; 0.5, 2 or 4× glyphosate (1× = 32 oz/acre of 40% ai), clonally propagated events, average of 5 leaves): survived the spraying procedure without signs of glyphosate damage
outcome after second spray with an 8× dose ([7]; 8× glyphosate three weeks later): survived
glyphosate-dependent hydrolysis of propionyl CoA [6]: showed glyphosate-dependent hydrolysis of propionyl CoA

B4: 10—4F2: evolved GAT; enzyme SEQ ID NO:454, transgene printed as SEQ ID NO:203 (protein)
chain: MLEVKPINAEDTYELRHRILRPNQPIEACMFESDLLRGAFHLGGFYRGKLISIASFHQAEHSELQGQKQYQLRGMATLEGYREQKAGSSLIRHAEEILRKRGADMLWCNARTSASGYYKKLGFSEQGEIFETPPVGPHILMYKRLT
modifications: 10_4F2
effect of growth temperature on glyphosate tolerance [5]: not adversely effected
